The results in this text go back to patent US8148086B2, “Methods to predict and prevent resistance to taxoid compounds” (Children's Medical Center Corporatioin, priority 2005, dated 2012).

One test concerns A549 and A549-TR cells. The test is described as follows: MTT cytotoxicity assay, paclitaxel on cell proliferation/survival. In kind it is cell-based, human. The note with it: MTT 72 h after paclitaxel addition. Here is the method:
(§1) FIGS. 1A and 1B show graphs illustrating the effect of paclitaxel on cell proliferation. A549 and A549 TR cell lines (FIG. 1A) and MES-SA and MES-SA-DX5 cell lines (FIG. 1B) were treated with various concentrations of paclitaxel. 24 hours after 1×10^4 cells/well were seeded in 96 well plates. MTT assay for cell survival was performed 72 h after paclitaxel addition. X axis: concentration of paclitaxel, Y axis-% survival.
(§2) Cell Culture. The human non-small cell lung carcinoma cell line A549 and its Paclitaxel-resistant derivative cell lines were cultured in F-12 Ham nutrient mixture (Invitrogren, Carlsbad, Calif.) supplemented with 10% fetal bovine serum (FBS) at 37° C. in a humidified atmosphere with 5% CO2/95% air. The paclitaxel-resistant cell lines were grown under selective pressure (100 nM paclitaxel), then placed in Paclitaxel-free culture medium 5-7 days before experiments were performed. The uterine sarcoma cells (MES-SA) and the multidrug resistant derivative (MES-SA/DX5) were maintained in McCoy's 5A media (ATCC, Rockville, Md.) supplemented with 10% FBS. […]
(§3) Cytotoxicity Assays. Cell growth inhibition was determined by 3-(4,5-dimethylthiazol-2-yl)-2,5-diphenyltetrazolium (MTT) bromide assay using MTT (Sigma Chemicals, St. Louis, Mo.) reagent in 96-well plates. […] Absorbance was determined using a 96-well SpectraMax plate reader (Molecular Devices, Sunnyvale, Calif.) at 570 nm.
For orientation: Tetrazolium dyes change colour on reduction, which living cells bring about.

Test [1] relates to MES-SA and MES-SA/DX5 cells. The description is as above. In kind it is cell-based, human. As to conditions: MTT 72 h after paclitaxel addition. The protocol:
as §1, §2, §3

On to `CC(=O)O[C@H]1C(=O)[C@@]2(C)[C@H]([C@H](OC(=O)c3ccccc3)[C@]3(O)C[C@H](OC(=O)[C@H](O)[C@@H](NC(=O)c4ccccc4)c4ccccc4)C(C)=C1C3(C)C)[C@]1(OC(C)=O)CO[C@@H]1C[C@@H]2O` [paclitaxel, Paclitaxel], for which the “difference in sensitivity to paclitaxel, resistant subline vs parental line” value with A549 and A549-TR cells is given as “greater than 100 fold”; in test [1], “greater than 100 fold”.
